Reference: the NIST ThermoML archive (doi:10.1021/je500420g)
± gives the expanded uncertainty stated by the source.

Test: xn = mol fraction of the nth substance listed
Conditions: 100 kPa, Liquid, Vibrating tube method

| Compound | mass density (293.15 K, x1 = 0.01) | mass density (293.15 K, x1 = 0.03) | mass density (293.15 K, x1 = 0.05) | mass density (303.15 K, x1 = 0.01) | mass density (303.15 K, x1 = 0.03) | mass density (303.15 K, x1 = 0.05) | mass density (313.15 K, x1 = 0.01) | mass density (313.15 K, x1 = 0.03) | mass density (313.15 K, x1 = 0.05) | mass density (323.15 K, x1 = 0.01) | mass density (323.15 K, x1 = 0.03) | mass density (323.15 K, x1 = 0.05) | mass density (333.15 K, x1 = 0.01) | mass density (333.15 K, x1 = 0.03) | mass density (333.15 K, x1 = 0.05) |
| --- | --- | --- | --- | --- | --- | --- | --- | --- | --- | --- | --- | --- | --- | --- | --- |
| [Br-].[Cs+] [cesium bromide] + O | 1090.5 ± 0.2 kg/m3 | 1267.9 ± 0.4 kg/m3 | 1438.8 ± 0.5 kg/m3 | 1086.7 ± 0.2 kg/m3 | 1262.8 ± 0.4 kg/m3 | 1432.6 ± 0.5 kg/m3 | 1082.3 ± 0.3 kg/m3 | 1257.3 ± 0.4 kg/m3 | 1426 ± 0.5 kg/m3 | 1077.6 ± 0.3 kg/m3 | 1251.5 ± 0.4 kg/m3 | 1419.3 ± 0.5 kg/m3 | 1072.4 ± 0.3 kg/m3 | 1245.5 ± 0.4 kg/m3 | 1412.4 ± 0.5 kg/m3 |
| [Cl-].[Cs+] [cesium chloride] + O | 1069.9 ± 0.2 kg/m3 | 1208.3 ± 0.3 kg/m3 | 1342.6 ± 0.4 kg/m3 | 1066.3 ± 0.2 kg/m3 | 1203.6 ± 0.3 kg/m3 | 1337 ± 0.4 kg/m3 | 1062.1 ± 0.2 kg/m3 | 1198.6 ± 0.3 kg/m3 | 1331.2 ± 0.4 kg/m3 | 1057.5 ± 0.2 kg/m3 | 1193.2 ± 0.3 kg/m3 | 1325.2 ± 0.4 kg/m3 | 1052.4 ± 0.2 kg/m3 | 1187.7 ± 0.3 kg/m3 | 1319.1 ± 0.4 kg/m3 |
| [Cs+].[F-] [cesium fluoride (CsF)] + O | 1070.9 ± 0.2 kg/m3 | 1210.1 ± 0.3 kg/m3 | 1349.9 ± 0.4 kg/m3 | 1068 ± 0.2 kg/m3 | 1206.2 ± 0.3 kg/m3 | 1345.4 ± 0.4 kg/m3 | 1064.3 ± 0.2 kg/m3 | 1201.7 ± 0.3 kg/m3 | 1340.4 ± 0.4 kg/m3 | 1059.9 ± 0.3 kg/m3 | 1196.6 ± 0.3 kg/m3 | 1334.9 ± 0.4 kg/m3 | 1053 ± 0.3 kg/m3 | 1190.9 ± 0.3 kg/m3 | 1329.1 ± 0.4 kg/m3 |
| [Cs+].[I-] [cesium iodide] + O | 1109.5 ± 0.3 kg/m3 | 1320.7 ± 0.4 kg/m3 | 1519.4 ± 0.6 kg/m3 | 1105.6 ± 0.3 kg/m3 | 1314.9 ± 0.4 kg/m3 | 1512.1 ± 0.6 kg/m3 | 1101 ± 0.3 kg/m3 | 1308.9 ± 0.4 kg/m3 | 1504.5 ± 0.6 kg/m3 | 1096 ± 0.3 kg/m3 | 1302.5 ± 0.4 kg/m3 | 1496.9 ± 0.6 kg/m3 | 1090.6 ± 0.3 kg/m3 | 1295.9 ± 0.4 kg/m3 | 1489.1 ± 0.6 kg/m3 |
| [Br-].[Li+] [lithium bromide] + O | 1033.5 ± 0.2 kg/m3 | 1101.8 ± 0.3 kg/m3 | 1171.5 ± 0.3 kg/m3 | 1030.2 ± 0.2 kg/m3 | 1098 ± 0.3 kg/m3 | 1168 ± 0.3 kg/m3 | 1026.3 ± 0.2 kg/m3 | 1093.9 ± 0.3 kg/m3 | 1163.9 ± 0.3 kg/m3 | 1022 ± 0.2 kg/m3 | 1089.4 ± 0.3 kg/m3 | 1159.3 ± 0.3 kg/m3 | 1017.2 ± 0.2 kg/m3 | 1084.6 ± 0.3 kg/m3 | 1154.3 ± 0.3 kg/m3 |
| [Cl-].[Li+] [lithium chloride] + O | 1012.3 ± 0.2 kg/m3 | 1038.5 ± 0.2 kg/m3 | 1064.1 ± 0.2 kg/m3 | 1009.7 ± 0.2 kg/m3 | 1035.7 ± 0.2 kg/m3 | 1061.2 ± 0.2 kg/m3 | 1006.2 ± 0.2 kg/m3 | 1032.3 ± 0.2 kg/m3 | 1057.9 ± 0.2 kg/m3 | 1002.1 ± 0.2 kg/m3 | 1028.3 ± 0.2 kg/m3 | 1054 ± 0.2 kg/m3 | 997.4 ± 0.2 kg/m3 | 1023.8 ± 0.2 kg/m3 | 1049.8 ± 0.2 kg/m3 |
